Measurements as given in patent US12427152B2, “HDAC inhibitors for use with NK cell based therapies” (Viracta Therapeutics, Inc., priority 2016, dated 2025).

How the values were obtained:
PC3 cells [1] = test: NK cell lysis assay (In-111 release) with PC3 cells as target; type: cell-based; settings: 657 nM, 2.5 h/day, 4 days, targets on day 5, primary NK cells and HaNK
Protocol: Tumor cell lines PC3 and MDA-MB-231, treated with VRx-3996, were tested for their ability to be killed by different primary NK cells and the NK cell line HaNK (NK cells with a high-affinity Fc receptor which has a mutation at 158V of human FcγRIIIa). PC3 and MDA-MB-231 cells were exposed to DMSO or CHR-3996 daily (657 nM, 2.5 h/day) for 4 consecutive days, prior to being used as targets on day 5 for direct NK killing in an overnight standard In-111 release lysis assay. Primary NK cells from human PBMCs of 2 healthy donors (isolated by negative selection), and NKs rested for 24 h at 37 C° and 5% CO2, or pre-exposed to ALT803 (25 ng/ml) for 24 h, were used. HaNK cells were used 24 h post 10 Gy radiation exposure. NK cells were plated and varying effector to target ratios (E:T) against PC3 cells (FIG. 3) and MDA-MB-231 cells (FIG. 4).

HDAC [2] = test: Immunoblot for acetyl-lysine 9 on Histone H3 (HDAC activity) in PC3 cells; type: cell-based; settings: 657 nM, 2.5 h
Protocol: (§1) VRx-3996 was tested for its ability to inhibit HDAC activity in PC3 (prostate) and MDA-MB-231 (triple negative breast cancer) carcinoma cells. Cells were exposed to for 2.5 h to VRx-3996 (657 nM), or DMSO prior to being examined for the presence of acetyl-lysine 9 on Histone H3 by immunoblot.

PC3 cells [3] = test: Cell surface phenotype of PC3 cells by flow cytometry; type: cell-based; settings: 657 nM, 2.5 h/day, 4 days
Protocol: (§2) After treatment with DMSO (vehicle) or VRx-3996, PC3 or […] cells were analyzed for their cell surface phenotype. Cells were exposed to CHR-3996 daily (657 nM, 2.5 h/day) or DMSO control for 4 consecutive days; on day 5, cells were examined by flow cytometry for cell-surface expression of proteins associated with immune recognition, stimulation, and inhibition. Overall VRx-3996 led to several changes in both cell lines.

HDAC [4] = test: Immunoblot for acetyl-lysine 9 on Histone H3 (HDAC activity) in MDA-MB-231 cells; type: cell-based; settings: 657 nM, 2.5 h
Protocol: as §1

[5] = test system: PBMCs from patients with metastatic breast cancer; test: Flow cytometry of immune cell subsets in PBMCs of patients with metastatic breast cancer; type: cell-based, human; settings: 657 nM, 2.5 h/day, 2 days
Protocol: Peripheral blood mononuclear cells (PBMCs) from 7 patients with metastatic breast cancer were exposed to VRx-3996 daily (657 nM, 2.5 h/day) or DMSO control for 2 consecutive days and then examined by flow cytometry for different immune cell subsets analyzed: 9 standard immune cell subsets, 114 subsets relating to maturation/function.

MDA-MB-231 cells = test: Cell surface phenotype of MDA-MB-231 cells by flow cytometry; type: cell-based; settings: 657 nM, 2.5 h/day, 4 days
Protocol: as §2

[6] = PBMCs of patients with metastatic cancer

In the case of `O=C(NO)c1cnc(N2CC3C(C2)C3NCc2ccc3cc(F)ccc3n2)nc1` (centres unmarked) [VRx-3996, 2-(6-{[(6-Fluoroquinolin-2-yl)methyl]amino}-3-azabicyclo[3.1.0]hex-3-yl)-N-hydroxypyrimidine-5-carboxamide], the “Sensitization of PC3 cells to NK lysis” value (PC3 cells [1]) is reported as “Sensitizes PC3 Cells to NK Lysis”, the “Histone H3 deacetylation (acetyl-lysine 9 on Histone H3)” value (HDAC [2]) is reported as “inhibits Histone H3 deacetylation” and the “CD155 % Pos” value (PC3 cells [3]; flow cytometry day 5) is reported as 95.9%. The “CD155 GeoMFI” value (PC3 cells [3]; flow cytometry day 5) was 742, the “EGFR % Pos” value (PC3 cells [3]; flow cytometry day 5) was 75.6% and the “EGFR GeoMFI” value (PC3 cells [3]; flow cytometry day 5) was 291. The “Fas % Pos” value (PC3 cells [3]; flow cytometry day 5) was 35.3%, the “Fas GeoMFI” value (PC3 cells [3]; flow cytometry day 5) was 79 and the “HLA-A, B, C % Pos” value (PC3 cells [3]; flow cytometry day 5) was 94.4%. The “HLA-A, B, C GeoMFI” value (PC3 cells [3]; flow cytometry day 5) was 1198, the “ICAM-1 % Pos” value (PC3 cells [3]; flow cytometry day 5) was 66.8% and the “ICAM-1 GeoMFI” value (PC3 cells [3]; flow cytometry day 5) was 129. The “MIC-A/B % Pos” value (PC3 cells [3]; flow cytometry day 5) was 48%, the “MIC-A/B GeoMFI” value (PC3 cells [3]; flow cytometry day 5) was 124 and the “PD-L1 % Pos” value (PC3 cells [3]; flow cytometry day 5) was 28%. The “PD-L1 GeoMFI” value (PC3 cells [3]; flow cytometry day 5) was 43, the “ULBP-3 % Pos” value (PC3 cells [3]; flow cytometry day 5) was 7.6% and the “ULBP-3 GeoMFI” value (PC3 cells [3]; flow cytometry day 5) was 31. The “% change CD155 % Pos” value (PC3 cells [3]; vs DMSO) was <5%, the “% change CD155 GeoMFI” value (PC3 cells [3]; vs DMSO) was 50% and the “% change EGFR % Pos” value (PC3 cells [3]; vs DMSO) was −15%. The “% change EGFR GeoMFI” value (PC3 cells [3]; vs DMSO) was −33%, the “% change Fas % Pos” value (PC3 cells [3]; vs DMSO) was −32% and the “% change Fas GeoMFI” value (PC3 cells [3]; vs DMSO) was −7%. The “% change HLA-A, B, C % Pos” value (PC3 cells [3]; vs DMSO) was <5%, the “% change HLA-A, B, C GeoMFI” value (PC3 cells [3]; vs DMSO) was 77% and the “% change ICAM-1 % Pos” value (PC3 cells [3]; vs DMSO) was <5%. For the same compound, the “% change ICAM-1 GeoMFI” value (PC3 cells [3]; vs DMSO) was 32%, the “% change MIC-A/B % Pos” value (PC3 cells [3]; vs DMSO) was −20% and the “% change MIC-A/B GeoMFI” value (PC3 cells [3]; vs DMSO) was 7%. The “% change PD-L1 % Pos” value (PC3 cells [3]; vs DMSO) was −39%, the “% change PD-L1 GeoMFI” value (PC3 cells [3]; vs DMSO) was −27% and the “% change ULBP-3 % Pos” value (PC3 cells [3]; vs DMSO) was −88%. The “% change ULBP-3 GeoMFI” value (PC3 cells [3]; vs DMSO) was −75%, the “Histone H3 deacetylation (acetyl-lysine 9 on Histone H3)” value (HDAC [4]) was “inhibits Histone H3 deacetylation” and the “FoxP3+ regulatory T cells in PBMCs” value [5, 6] was “Reduces”. The “FoxP3 in T regulatory subsets (FACS, FIGS. 5A and 5B)” value [5, 6] was “reduced”, the “B cell median frequency” value ([5]; PBMCs, 7 patients) was 6.37 % of PBMC and the “B cells PDL1+ median frequency” value ([5]; PBMCs, 7 patients) was 0.55 % of PBMC. The “CD4 CM PD1+ median frequency” value ([5]; PBMCs, 7 patients) was 3.24 % of PBMC, the CD4 median frequency ([5]; PBMCs, 7 patients) was 42.36 % of PBMC and the “CD8 Tim3+ median frequency” value ([5]; PBMCs, 7 patients) was 0.06 % of PBMC. For the same compound, the CD8 median frequency ([5]; PBMCs, 7 patients) was 17.67 % of PBMC, the “CD8 naive median frequency” value ([5]; PBMCs, 7 patients) was 4.99 % of PBMC and the “CD49d neg Treg median frequency” value ([5]; PBMCs, 7 patients) was 5.66 % of CD4. For the same compound, the “ICOS+ CD4 median frequency” value ([5]; PBMCs, 7 patients) was 1.26 % of PBMC, the “ICOS+ PD-1+ CD4 median frequency” value ([5]; PBMCs, 7 patients) was 0.5 % of PBMC and the “ICOS+ Treg median frequency” value ([5]; PBMCs, 7 patients) was 2.31 % of CD4. For the same compound, the “MDSC CD16+ median frequency” value ([5]; PBMCs, 7 patients) was 2.19 % of PBMC, the MDSC median frequency ([5]; PBMCs, 7 patients) was 5.32 % of PBMC and the NK median frequency ([5]; PBMCs, 7 patients) was 3.46 % of PBMC. The “NKT PD1+ median frequency” value ([5]; PBMCs, 7 patients) was 0.75 % of PBMC, the NKT median frequency ([5]; PBMCs, 7 patients) was 4.24 % of PBMC and the “PD-1+ Treg median frequency” value ([5]; PBMCs, 7 patients) was 2.31 % of CD4. The “Total Treg median frequency” value ([5]; PBMCs, 7 patients) was 9.39 % of CD4, the “Treg CD49d neg median frequency” value ([5]; PBMCs, 7 patients) was 0.27 % of PBMC and the “Treg ICOS+ median frequency” value ([5]; PBMCs, 7 patients) was 0.14 % of PBMC. For the same compound, the Treg median frequency ([5]; PBMCs, 7 patients) was 0.47 % of PBMC, the cDC median frequency ([5]; PBMCs, 7 patients) was 0.11 % of PBMC and the “dnMDSC PDL1+ median frequency” value ([5]; PBMCs, 7 patients) was 0.07 % of PBMC. For the same compound, the dnMDSC median frequency ([5]; PBMCs, 7 patients) was 0.36 % of PBMC, the “mMDSC CD16+ median frequency” value ([5]; PBMCs, 7 patients) was 2.08 % of PBMC and the mMDSC median frequency ([5]; PBMCs, 7 patients) was 4.15 % of PBMC. The pDC median frequency ([5]; PBMCs, 7 patients) was <0.01 % of PBMC, the “CD122 % Pos” value (MDA-MB-231 cells; flow cytometry day 5) was 81.9% and the “CD122 GeoMFI” value (MDA-MB-231 cells; flow cytometry day 5) was 735. For the same compound, the “CD155 % Pos” value (MDA-MB-231 cells; flow cytometry day 5) was 96.1%, the “CD155 GeoMFI” value (MDA-MB-231 cells; flow cytometry day 5) was 2937 and the “EGFR % Pos” value (MDA-MB-231 cells; flow cytometry day 5) was 81.9%. For the same compound, the “EGFR GeoMFI” value (MDA-MB-231 cells; flow cytometry day 5) was 735, the “Fas % Pos” value (MDA-MB-231 cells; flow cytometry day 5) was 27.3% and the “Fas GeoMFI” value (MDA-MB-231 cells; flow cytometry day 5) was 190. The “HLA-A, B, C % Pos” value (MDA-MB-231 cells; flow cytometry day 5) was 96.2%, the “HLA-A, B, C GeoMFI” value (MDA-MB-231 cells; flow cytometry day 5) was 2470 and the “ICAM-1 % Pos” value (MDA-MB-231 cells; flow cytometry day 5) was 96.2%. For the same compound, the “ICAM-1 GeoMFI” value (MDA-MB-231 cells; flow cytometry day 5) was 8554, the “MIC-A/B % Pos” value (MDA-MB-231 cells; flow cytometry day 5) was 94.6% and the “MIC-A/B GeoMFI” value (MDA-MB-231 cells; flow cytometry day 5) was 2880. The “PD-L1 % Pos” value (MDA-MB-231 cells; flow cytometry day 5) was 80%, the “PD-L1 GeoMFI” value (MDA-MB-231 cells; flow cytometry day 5) was 303 and the “TRAIL-R1(DR4) % Pos” value (MDA-MB-231 cells; flow cytometry day 5) was 27.1%. The “TRAIL-R1(DR4) GeoMFI” value (MDA-MB-231 cells; flow cytometry day 5) was 107, the “ULBP-2/5/6 % Pos” value (MDA-MB-231 cells; flow cytometry day 5) was 75.9% and the “ULBP-2/5/6 GeoMFI” value (MDA-MB-231 cells; flow cytometry day 5) was 365. The “% change CD122 % Pos” value (MDA-MB-231 cells; vs DMSO) was −10%, the “% change CD122 GeoMFI” value (MDA-MB-231 cells; vs DMSO) was 119% and the “% change CD155 % Pos” value (MDA-MB-231 cells; vs DMSO) was <5%. For the same compound, the “% change CD155 GeoMFI” value (MDA-MB-231 cells; vs DMSO) was 197%, the “% change EGFR % Pos” value (MDA-MB-231 cells; vs DMSO) was −10% and the “% change EGFR GeoMFI” value (MDA-MB-231 cells; vs DMSO) was 119%. The “% change Fas % Pos” value (MDA-MB-231 cells; vs DMSO) was −23%, the “% change Fas GeoMFI” value (MDA-MB-231 cells; vs DMSO) was 184% and the “% change HLA-A, B, C % Pos” value (MDA-MB-231 cells; vs DMSO) was <5%. The “% change HLA-A, B, C GeoMFI” value (MDA-MB-231 cells; vs DMSO) was 142%, the “% change ICAM-1 % Pos” value (MDA-MB-231 cells; vs DMSO) was <5% and the “% change ICAM-1 GeoMFI” value (MDA-MB-231 cells; vs DMSO) was 546%. The “% change MIC-A/B % Pos” value (MDA-MB-231 cells; vs DMSO) was 6%, the “% change MIC-A/B GeoMFI” value (MDA-MB-231 cells; vs DMSO) was 411% and the “% change PD-L1 % Pos” value (MDA-MB-231 cells; vs DMSO) was <5%. The “% change PD-L1 GeoMFI” value (MDA-MB-231 cells; vs DMSO) was 175%, the “% change TRAIL-R1(DR4) % Pos” value (MDA-MB-231 cells; vs DMSO) was 293% and the “% change TRAIL-R1(DR4) GeoMFI” value (MDA-MB-231 cells; vs DMSO) was 1290%. The “% change ULBP-2/5/6 % Pos” value (MDA-MB-231 cells; vs DMSO) was 6.5% and the “% change ULBP-2/5/6 GeoMFI” value (MDA-MB-231 cells; vs DMSO) was 244%.
